Data reported in ChEMBL document CHEMBL5291721, “A preclinical secondary pharmacology resource illuminates target-adverse drug reaction associations of marketed drugs” (Nat Commun, 2023).

Columns and labels:
[1] = target: 3',5'-cyclic-AMP phosphodiesterase 4D (Homo sapiens, UniProt Q08499); assay type: functional
[2] = target: D(1A) dopamine receptor (Homo sapiens, UniProt P21728); assay type: functional, cell-based
[3] = target: T1, Type-1 angiotensin II receptor (Homo sapiens, UniProt P30556)
T1 sequence (P30556 whole entry): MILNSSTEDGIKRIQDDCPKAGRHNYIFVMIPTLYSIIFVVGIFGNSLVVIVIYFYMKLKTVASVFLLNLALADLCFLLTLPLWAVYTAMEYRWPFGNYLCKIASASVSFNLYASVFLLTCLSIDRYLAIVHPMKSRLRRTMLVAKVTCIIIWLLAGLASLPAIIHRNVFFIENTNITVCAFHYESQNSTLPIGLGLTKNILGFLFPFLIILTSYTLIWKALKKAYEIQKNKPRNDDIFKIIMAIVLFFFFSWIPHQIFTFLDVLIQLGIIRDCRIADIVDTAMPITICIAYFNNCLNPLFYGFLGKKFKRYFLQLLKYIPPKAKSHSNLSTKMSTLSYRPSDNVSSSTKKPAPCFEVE

[4] = target: T2, 5-hydroxytryptamine receptor 2C (Homo sapiens, UniProt P28335)
T2 sequence (P28335 whole entry): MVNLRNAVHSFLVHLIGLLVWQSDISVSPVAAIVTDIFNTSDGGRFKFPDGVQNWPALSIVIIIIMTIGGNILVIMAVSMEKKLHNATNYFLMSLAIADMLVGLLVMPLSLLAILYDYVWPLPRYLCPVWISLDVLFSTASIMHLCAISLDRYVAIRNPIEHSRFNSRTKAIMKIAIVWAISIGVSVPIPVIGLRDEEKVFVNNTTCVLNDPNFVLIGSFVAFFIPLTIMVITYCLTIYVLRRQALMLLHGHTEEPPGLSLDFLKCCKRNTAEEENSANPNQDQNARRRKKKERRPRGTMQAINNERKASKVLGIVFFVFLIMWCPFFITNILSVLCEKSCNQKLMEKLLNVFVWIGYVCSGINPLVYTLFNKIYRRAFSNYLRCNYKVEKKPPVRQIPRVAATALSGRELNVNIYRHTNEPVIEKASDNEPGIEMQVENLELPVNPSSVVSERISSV

[5] = target: Delta-type opioid receptor (Homo sapiens, UniProt P41143)
[6] = target: Vasopressin V2 receptor (Homo sapiens, UniProt P30518)
[7] = target: cGMP-inhibited 3',5'-cyclic phosphodiesterase 3A (Homo sapiens, UniProt Q14432); assay type: functional
[8] = target: T3, Alpha-1A adrenergic receptor (Homo sapiens, UniProt P35348); assay type: functional, cell-based
T3 sequence (P35348 whole entry): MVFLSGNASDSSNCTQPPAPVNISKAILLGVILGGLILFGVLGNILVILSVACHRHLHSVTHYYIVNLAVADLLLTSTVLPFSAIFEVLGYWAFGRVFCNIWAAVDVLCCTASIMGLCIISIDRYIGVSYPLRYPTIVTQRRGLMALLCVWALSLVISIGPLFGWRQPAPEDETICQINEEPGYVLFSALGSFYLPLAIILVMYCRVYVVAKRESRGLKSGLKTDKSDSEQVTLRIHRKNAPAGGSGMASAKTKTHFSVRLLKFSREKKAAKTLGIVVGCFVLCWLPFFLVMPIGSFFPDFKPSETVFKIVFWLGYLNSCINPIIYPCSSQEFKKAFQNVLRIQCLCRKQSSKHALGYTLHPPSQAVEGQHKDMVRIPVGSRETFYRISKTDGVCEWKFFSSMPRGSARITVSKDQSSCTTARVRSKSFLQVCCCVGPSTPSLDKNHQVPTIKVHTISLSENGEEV

[9] = target: Gamma-aminobutyric acid receptor subunit alpha-1 (Rattus norvegicus, UniProt P62813); assay type: functional
[10] = target: T4, Alpha-2B adrenergic receptor (Homo sapiens, UniProt P18089)
T4 sequence (P18089 whole entry): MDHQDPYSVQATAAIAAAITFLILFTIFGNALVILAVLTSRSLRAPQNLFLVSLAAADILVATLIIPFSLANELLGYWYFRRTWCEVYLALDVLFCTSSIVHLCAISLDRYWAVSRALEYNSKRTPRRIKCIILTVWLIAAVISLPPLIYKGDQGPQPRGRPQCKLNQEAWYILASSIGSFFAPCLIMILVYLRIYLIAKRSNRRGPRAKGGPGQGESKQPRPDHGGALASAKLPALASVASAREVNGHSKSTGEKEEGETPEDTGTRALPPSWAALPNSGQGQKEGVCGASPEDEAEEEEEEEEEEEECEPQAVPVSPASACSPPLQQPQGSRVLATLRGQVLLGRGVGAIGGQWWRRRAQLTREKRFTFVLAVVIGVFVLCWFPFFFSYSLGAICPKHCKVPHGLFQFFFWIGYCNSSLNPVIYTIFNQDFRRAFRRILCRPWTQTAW
Also: assay procedure not described here.

Sequence of cGMP-inhibited 3',5'-cyclic phosphodiesterase 3A (Q14432 whole entry): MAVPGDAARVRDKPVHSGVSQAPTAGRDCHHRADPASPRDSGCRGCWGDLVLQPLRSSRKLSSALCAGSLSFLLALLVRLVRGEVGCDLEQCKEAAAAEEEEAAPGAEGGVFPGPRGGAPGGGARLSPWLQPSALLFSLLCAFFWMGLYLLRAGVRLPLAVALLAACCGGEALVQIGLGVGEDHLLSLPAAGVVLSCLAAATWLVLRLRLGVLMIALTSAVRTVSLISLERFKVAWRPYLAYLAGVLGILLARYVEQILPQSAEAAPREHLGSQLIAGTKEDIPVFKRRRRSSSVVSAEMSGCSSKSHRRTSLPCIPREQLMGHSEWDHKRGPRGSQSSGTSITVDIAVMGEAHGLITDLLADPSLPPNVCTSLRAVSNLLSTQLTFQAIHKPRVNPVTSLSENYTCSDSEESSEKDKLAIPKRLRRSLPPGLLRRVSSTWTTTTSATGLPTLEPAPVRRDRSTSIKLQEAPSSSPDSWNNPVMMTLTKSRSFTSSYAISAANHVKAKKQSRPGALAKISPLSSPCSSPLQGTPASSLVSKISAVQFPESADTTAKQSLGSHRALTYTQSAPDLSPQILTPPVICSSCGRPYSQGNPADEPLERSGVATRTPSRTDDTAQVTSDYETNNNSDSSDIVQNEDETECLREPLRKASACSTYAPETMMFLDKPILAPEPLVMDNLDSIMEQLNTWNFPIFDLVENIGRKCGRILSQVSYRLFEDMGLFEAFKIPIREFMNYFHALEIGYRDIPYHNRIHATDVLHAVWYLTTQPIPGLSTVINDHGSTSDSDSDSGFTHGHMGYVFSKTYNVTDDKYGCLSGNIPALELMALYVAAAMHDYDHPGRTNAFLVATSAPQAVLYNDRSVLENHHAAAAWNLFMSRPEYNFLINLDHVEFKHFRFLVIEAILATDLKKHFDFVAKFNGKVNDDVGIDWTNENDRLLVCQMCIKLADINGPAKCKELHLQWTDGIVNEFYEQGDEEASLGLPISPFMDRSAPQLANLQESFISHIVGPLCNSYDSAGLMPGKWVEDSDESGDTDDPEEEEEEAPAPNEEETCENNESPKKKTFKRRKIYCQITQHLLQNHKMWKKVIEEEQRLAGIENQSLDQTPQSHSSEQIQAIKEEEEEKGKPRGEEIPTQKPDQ
Sequence of Vasopressin V2 receptor (P30518 whole entry): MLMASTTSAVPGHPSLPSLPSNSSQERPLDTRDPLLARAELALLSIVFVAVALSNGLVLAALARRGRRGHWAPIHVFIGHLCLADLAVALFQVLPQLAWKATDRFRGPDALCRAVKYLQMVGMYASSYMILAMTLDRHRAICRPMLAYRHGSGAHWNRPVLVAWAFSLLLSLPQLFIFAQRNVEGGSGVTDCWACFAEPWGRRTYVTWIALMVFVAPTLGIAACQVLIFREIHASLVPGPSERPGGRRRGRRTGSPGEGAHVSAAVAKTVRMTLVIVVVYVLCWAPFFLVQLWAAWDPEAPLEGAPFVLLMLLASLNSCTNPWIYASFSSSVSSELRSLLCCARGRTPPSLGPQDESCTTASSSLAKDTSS
Sequence of Delta-type opioid receptor (P41143 whole entry): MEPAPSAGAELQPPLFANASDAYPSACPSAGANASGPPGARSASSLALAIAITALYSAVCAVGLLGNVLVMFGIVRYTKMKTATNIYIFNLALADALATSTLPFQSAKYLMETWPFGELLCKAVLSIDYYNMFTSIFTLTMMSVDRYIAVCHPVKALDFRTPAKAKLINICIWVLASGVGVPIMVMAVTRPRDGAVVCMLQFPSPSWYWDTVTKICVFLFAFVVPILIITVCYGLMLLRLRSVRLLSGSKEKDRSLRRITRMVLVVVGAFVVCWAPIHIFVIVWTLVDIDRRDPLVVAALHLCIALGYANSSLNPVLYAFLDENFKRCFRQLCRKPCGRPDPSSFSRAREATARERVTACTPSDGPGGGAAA
Sequence of D(1A) dopamine receptor (P21728 whole entry): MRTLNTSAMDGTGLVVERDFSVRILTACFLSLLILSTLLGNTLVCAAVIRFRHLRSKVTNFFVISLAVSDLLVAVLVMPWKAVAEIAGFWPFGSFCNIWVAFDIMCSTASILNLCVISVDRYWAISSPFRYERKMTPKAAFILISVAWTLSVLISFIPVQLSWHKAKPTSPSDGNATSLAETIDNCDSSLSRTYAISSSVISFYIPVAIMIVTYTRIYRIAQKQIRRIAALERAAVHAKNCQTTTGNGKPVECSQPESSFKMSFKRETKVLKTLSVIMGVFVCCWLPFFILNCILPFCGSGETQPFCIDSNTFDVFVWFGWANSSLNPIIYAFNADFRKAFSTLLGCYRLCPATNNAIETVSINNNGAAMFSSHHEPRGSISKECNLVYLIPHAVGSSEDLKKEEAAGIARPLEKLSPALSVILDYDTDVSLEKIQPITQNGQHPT
Sequence of Gamma-aminobutyric acid receptor subunit alpha-1 (P62813 whole entry): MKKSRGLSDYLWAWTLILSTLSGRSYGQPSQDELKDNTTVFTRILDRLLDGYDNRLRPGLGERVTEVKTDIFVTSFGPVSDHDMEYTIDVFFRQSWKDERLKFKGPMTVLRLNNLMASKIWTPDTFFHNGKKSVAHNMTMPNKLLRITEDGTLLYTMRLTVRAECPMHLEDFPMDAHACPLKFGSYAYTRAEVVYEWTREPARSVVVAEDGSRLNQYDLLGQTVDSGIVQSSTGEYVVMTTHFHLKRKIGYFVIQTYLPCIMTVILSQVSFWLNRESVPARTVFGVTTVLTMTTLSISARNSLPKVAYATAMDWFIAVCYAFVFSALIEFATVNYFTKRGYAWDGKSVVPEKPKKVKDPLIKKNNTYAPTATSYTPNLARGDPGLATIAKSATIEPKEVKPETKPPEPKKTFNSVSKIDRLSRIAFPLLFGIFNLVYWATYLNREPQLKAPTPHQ
Sequence of 3',5'-cyclic-AMP phosphodiesterase 4D (Q08499 whole entry): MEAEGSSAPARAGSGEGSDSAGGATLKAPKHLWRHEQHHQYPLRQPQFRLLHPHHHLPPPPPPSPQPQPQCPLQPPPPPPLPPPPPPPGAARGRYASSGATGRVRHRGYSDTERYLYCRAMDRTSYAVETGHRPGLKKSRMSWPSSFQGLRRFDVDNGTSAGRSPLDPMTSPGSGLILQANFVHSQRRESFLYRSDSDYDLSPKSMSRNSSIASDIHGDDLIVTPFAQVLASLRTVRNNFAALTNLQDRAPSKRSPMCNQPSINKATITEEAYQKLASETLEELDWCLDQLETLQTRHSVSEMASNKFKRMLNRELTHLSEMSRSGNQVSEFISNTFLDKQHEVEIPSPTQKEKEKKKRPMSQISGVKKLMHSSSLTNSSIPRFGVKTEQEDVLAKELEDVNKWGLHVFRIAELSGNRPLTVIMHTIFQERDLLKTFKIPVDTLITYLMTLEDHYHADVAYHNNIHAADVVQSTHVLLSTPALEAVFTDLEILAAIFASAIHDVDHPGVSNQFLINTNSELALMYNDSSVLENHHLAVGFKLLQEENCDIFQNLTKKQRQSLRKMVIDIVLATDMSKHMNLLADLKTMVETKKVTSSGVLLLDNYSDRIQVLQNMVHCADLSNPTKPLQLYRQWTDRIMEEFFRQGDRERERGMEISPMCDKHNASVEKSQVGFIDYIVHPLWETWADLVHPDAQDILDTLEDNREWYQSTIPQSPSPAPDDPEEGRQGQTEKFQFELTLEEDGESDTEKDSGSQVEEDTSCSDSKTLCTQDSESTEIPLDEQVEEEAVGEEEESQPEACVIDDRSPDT

Compound | AC50 [1] [µM] | AC50 [2] [µM] | AC50 [3] [µM] | AC50 [4] [µM] | AC50 [5] [µM] | AC50 [6] [µM] | AC50 [7] [µM] | AC50 [8] [µM] | AC50 [9] [µM] | AC50 [10] [µM]
N=C(N)NC(=O)c1nc(Cl)c(N)nc1N [AMILORIDE] | > 30 | > 30 | > 30 | > 30 | > 30 | > 30 | > 30 | > 30 | > 30 | –
COc1ccc(-c2cc(=S)ss2)cc1 [ANETHOLTRITHION] | > 10 | > 30 | 9.3 | > 30 | > 30 | > 30 | > 30 | > 30 | > 30 | > 30
CC(C)(C)NCC(O)COc1ccccc1C#N (stereo unspecified) [BUNITROLOL] | > 30 | > 30 | – | > 30 | > 30 | – | > 30 | > 30 | > 30 | 26
C[C@]12CCC(=O)C=C1C=C[C@@H]1[C@@H]2CC[C@@]2(C)[C@H]1CC[C@@]21CCC(=O)O1 [CANRENONE] | > 30 | > 30 | > 30 | > 30 | > 30 | > 30 | > 30 | > 30 | > 30 | > 30
CN(C)CCC(O)(c1ccccc1)c1ccccc1Cl (stereo unspecified) [CHLOPHEDIANOL] | > 30 | > 10 | > 10 | 8.3 | > 30 | > 10 | > 30 | – | > 10 | > 10
C[C@]12C=CC(=O)C=C1C(Cl)=C[C@@H]1[C@@H]2[C@@H](O)C[C@@]2(C)[C@H]1CC[C@]2(O)C(=O)CO [CLOPREDNOL] | > 30 | > 30 | > 30 | 8.7 | > 30 | > 30 | > 30 | > 30 | > 30 | > 30
COc1cccc2c1C(=O)c1c(O)c3c(c(O)c1C2=O)C[C@@](O)(C(=O)CO)C[C@@H]3O[C@H]1C[C@H](N)[C@H](O)[C@H](C)O1 [DOXORUBICIN] | > 30 | > 30 | > 30 | > 30 | > 30 | > 30 | > 30 | 16 | > 10 | –
C[C@]12CCC(=O)C=C1[C@@H]1C[C@@H]1[C@H]1[C@@H]3[C@@H]4C[C@@H]4[C@@]4(CCC(=O)O4)[C@@]3(C)CC[C@@H]12 [DROSPIRENONE] | > 30 | > 30 | > 30 | > 30 | > 30 | > 30 | > 30 | > 30 | > 30 | > 30
CC(C)(Oc1ccc(Cl)cc1)C(=O)OCCOC(=O)c1cccnc1 [ETOFIBRATE] | > 30 | > 30 | > 30 | > 30 | > 30 | > 30 | > 30 | > 30 | > 30 | > 30
CCn1c(=O)c2c(nc(/C=C/c3ccc(OC)c(OC)c3)n2C)n(CC)c1=O [ISTRADEFYLLINE] | 1.8 | – | – | – | – | – | > 30 | > 30 | – | –
COc1ccc(C(=O)c2ccccc2)c(O)c1 [OXYBENZONE] | 26 | > 30 | – | > 30 | > 30 | – | > 30 | > 30 | > 30 | > 30
C[C@]12C=CC(=O)C=C1CC[C@@H]1[C@@H]2[C@@H](O)C[C@@]2(C)[C@H]1CC[C@]2(O)C(=O)CO [PREDNISOLONE] | > 30 | > 10 | > 30 | > 30 | > 30 | > 30 | > 30 | > 30 | > 10 | –
CCC(=O)c1ccc2c(c1)N(CC(C)N(C)C)c1ccccc1S2 (stereo unspecified) [PROPIOMAZINE] | > 10 | > 10 | > 10 | 0.18 | > 30 | > 10 | > 30 | – | > 10 | 0.32
Cc1cn(-c2cc(NC(=O)c3ccc(C)c(Nc4nccc(-c5cnccn5)n4)c3)cc(C(F)(F)F)c2)cn1 [RADOTINIB] | > 30 | – | – | – | – | – | 30 | > 30 | – | –
CN(C)[C@@H]1C(O)=C(C(=O)NCN2CCCC2)C(=O)[C@@]2(O)C(O)=C3C(=O)c4c(O)cccc4[C@@](C)(O)[C@H]3C[C@@H]12 [ROLITETRACYCLINE] | > 30 | > 10 | > 10 | > 30 | > 30 | > 10 | > 30 | > 30 | > 10 | > 10
Cc1ccc(O)c([C@H](CCN(C(C)C)C(C)C)c2ccccc2)c1 [TOLTERODINE] | – | > 10 | – | > 30 | > 10 | – | – | > 30 | > 10 | > 10
CC1(C)O[C@@H]2C[C@H]3[C@@H]4CCC5=CC(=O)C=C[C@]5(C)[C@@]4(F)[C@@H](O)C[C@]3(C)[C@]2(C(=O)CO)O1 [TRIAMCINOLONE ACETONIDE] | > 30 | > 30 | > 30 | > 30 | > 30 | > 30 | > 30 | – | > 30 | –
Oc1cc(Cl)ccc1Oc1ccc(Cl)cc1Cl [TRICLOSAN] | > 30 | > 30 | 24 | > 30 | > 30 | > 30 | > 30 | > 30 | > 30 | > 30
